Values belong to the compound of their own block, whether it stands above or below them.
Key:
CDK6 [1] = target: T1, CDK6 (Homo sapiens, UniProt Q00534); assay: CDK6 protein degradation activity by Western blot in MCF-7 cells; type: cell-based; set-up: host or cells: MCF-7; conditions: MCF7, compound 1 μM, 24 hours
Method: (§1) Cell lines: MCF-7 cell lines (human breast cancer cells, available from ATCC) were cultured in MEM medium containing 10% calf serum in a 37° C., 5% CO2, and saturated humidity incubator. DMSO control group and compound intervention group (1 μM) were set. Cells were collected after the treatment for 24 hours, then 100 μL of pre-chilled cell lysate was added and cells were lysed on ice for 30 minutes, total cell protein was extracted, and protein concentration was determined and quantified by bicinchoninic acid method. After routine gelatinization, loading, electrophoresis, then transferring to membrane and blocking, rabbit anti-human CDK4 (1:450) and rabbit anti-human CDK6 (1:150) were added and incubated at 4° C. overnight. The mixture was rinsed and then secondary antibody IgG (1:5000) was added. After the rinsing it was developed by the ECL developing solution, the Bio-Rad gel imaging system was used for scanning and imaging, and the computer software was used for analysis. […] (GAPDH) was used as an internal control. Image J software was used to analyze the gray scale of each band to calculate the degradation rate of the compound to degrade CDK4/6 protein.
Target sequence in this assay (Q00534 whole entry): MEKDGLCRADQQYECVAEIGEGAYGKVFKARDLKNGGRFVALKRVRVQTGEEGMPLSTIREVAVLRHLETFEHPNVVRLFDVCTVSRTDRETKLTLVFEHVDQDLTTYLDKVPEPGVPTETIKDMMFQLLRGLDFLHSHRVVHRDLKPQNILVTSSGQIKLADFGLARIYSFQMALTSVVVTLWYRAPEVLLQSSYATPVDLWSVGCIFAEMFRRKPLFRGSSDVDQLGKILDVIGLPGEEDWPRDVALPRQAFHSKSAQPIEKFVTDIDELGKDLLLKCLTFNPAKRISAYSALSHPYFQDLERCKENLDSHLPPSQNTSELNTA

CDK4 [2] = target: T2, CDK4 (Homo sapiens, UniProt P11802); assay: CDK4 inhibition by Caliper assay; type: biochemical; conditions: compound 100 nM
Method: (§2) The experimental steps were as follows:
(§3) Preparation of 1×kinase reaction buffer (50 mM HEPES, PH 7.5; 0.0015% Brij-35) and kinase reaction termination solution (100 mM HEPES, PH 7.5; 0.0015% Brij-35; 0.2% Coating Reagent; 50 mM EDTA) preparation of experimental samples: 100 μL of 5 μM sample solution (dissolved in 100% DMSO) was added to a 96-well plate to obtain a 50×sample solution. As controls, two wells containing only 100 μL of 100% DMSO were set on the same plate. One was served as a control without samples and the other was served as a control without enzymes. 10 μL of sample and 90 μL of 1×kinase reaction buffer were added to a 96-well plate as a transfer plate. The transfer plate was shaken for 10 minutes.
(§4) Preparation of the test plate: taking 5 μL of each of the prepared samples in the 96-well transfer plate into a 384-well plate. Kinase reaction: to 5 μL of 5×compound solution (dissolved in DMSO, diluted 10 times with water) was added 10 μL of 2.5×CDK4/6 kinase solution (kinase was diluted with 1×kinase reaction buffer), which was incubated at room temperature for 10 min, and then 10 μL of 2.5×substrate peptide solution (FAM-labeled peptide and ATP were diluted with 1×kinase reaction buffer) was added. Termination of the kinase reaction: 25 μL of kinase reaction termination solution was added after being reacted at 28° C. for a period of time. The fluorescence (F) was tested on a Caliper and data was collected. The inhibition rate of kinase activity was calculated: the percent inhibition rate of kinase activity=(FDMSO control−Fsample)/(FDMSO control−Fnegative control)×100%, with DMSO as the solution control, and no kinase as the negative control.
Target sequence in this assay (P11802 whole entry, species assumed): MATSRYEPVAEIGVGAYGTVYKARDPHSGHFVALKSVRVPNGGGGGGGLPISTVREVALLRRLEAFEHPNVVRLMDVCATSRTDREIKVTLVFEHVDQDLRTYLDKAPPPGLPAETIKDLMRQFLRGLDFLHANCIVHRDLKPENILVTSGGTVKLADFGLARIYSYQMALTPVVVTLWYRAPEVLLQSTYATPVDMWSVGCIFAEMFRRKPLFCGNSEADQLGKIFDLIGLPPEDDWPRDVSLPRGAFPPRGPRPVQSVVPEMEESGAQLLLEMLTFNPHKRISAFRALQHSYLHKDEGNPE
Target sequence in this assay (P30281 whole entry partner, species assumed): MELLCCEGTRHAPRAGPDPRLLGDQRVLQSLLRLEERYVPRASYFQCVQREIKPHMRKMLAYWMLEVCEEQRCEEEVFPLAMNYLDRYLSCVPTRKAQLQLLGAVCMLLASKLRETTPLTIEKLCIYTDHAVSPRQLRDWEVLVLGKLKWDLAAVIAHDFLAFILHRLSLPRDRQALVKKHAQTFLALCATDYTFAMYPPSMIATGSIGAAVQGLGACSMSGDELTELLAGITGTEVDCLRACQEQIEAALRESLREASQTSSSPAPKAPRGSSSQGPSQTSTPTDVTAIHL

CDK6 [3] = target: T1, CDK6; assay: CDK6 inhibition by Caliper assay; type: biochemical; conditions: compound 100 nM
Method: as §2, §3, §4
Target sequence in this assay (Q00534 whole entry, species assumed): as the sequence (Q00534 whole entry) above
Target sequence in this assay (P30281 whole entry partner, species assumed): as the sequence (P30281 whole entry partner, species assumed) above

CDK4 [4] = target: T2, CDK4; assay: CDK4 protein degradation activity by Western blot in MCF-7 cells; type: cell-based; set-up: host or cells: MCF-7; conditions: MCF7, compound 1 μM, 24 hours
Method: as §1
Target sequence in this assay (P11802 whole entry): as the sequence (P11802 whole entry, species assumed) above

T47D cells = assay: Inhibition of proliferation of T47D cells by CCK8 assay; type: cell-based; conditions: Homo sapiens, CCK8, 72 hours
Method: The inhibitory effect of the compound on the proliferation of T47D cells (commercially available from ATCC) was determined by the CCK8 method in vitro. The experimental steps were as follows: T47D cells were cultured in 1640 medium of 10% calf serum, seeded in a 96-well plate with 1.5×10^5/ml, and placed in a 37° C., 5% CO2 incubator. Each compound or the positive drug (Ribociclib) was dissolved in dimethyl sulfoxide (DMSO) to obtain a solution with a concentration of 100 mM, and then diluted to the desired concentration with the culture medium. The solutions were then added to the above 96-well plates. Each concentration has 3 wells with 50 μl per well. As a control, DMSO was diluted in the corresponding gradient and then added to the plate. After the 96-well plate was cultured in a 37° C., 5% CO2 cell incubator for 72 hours, 110 μl of CCK8 solution in 9% was added to each well, and it was cultured in the incubator for another 4 hours. The light absorption value at 450 nm was measured. The relative survival rate of the cells after the compound treatment was calculated based on the light absorption value. The IC50 of the compound against T47D cells was calculated by software.

MCF-7 cells = assay: Inhibition of proliferation of MCF-7 cells by MTT assay; type: cell-based; conditions: Homo sapiens, MCF7, 48 hours
Method: The inhibitory effect of the compound on the proliferation of MCF-7 cells (commercially available from ATCC) was determined by the MTT method in vitro. […] Each compound was dissolved in dimethyl sulfoxide (DMSO) to obtain a solution with a concentration of 10 mM, and then diluted to the desired concentration with a phosphate buffer solution. The solution was added to the above 96-well plate. Each concentration has 2 wells with 10 μl per well. Each concentration was tested in duplicate. As a control, DMSO was diluted in the corresponding gradient and then added to the plate. After the 96-well plate was cultured in a 37° C., 5% CO2 cell incubator for 48 hours, 20 μl of MTT solution in 5 mg/ml was added to each well, and it was cultured in the incubator for another 3 to 4 hours. 100 μl of lysate was added to each well and the cells were further incubated overnight in the incubator to fully dissolve the formazan crystals generated. The light absorption value at 492 nm was measured. The relative survival rate of the cells after the compound treatment was calculated based on the light absorption value. The IC50 of the compound against MCF-7 cells was calculated by software.

SMILES: CN(C)C(=O)c1cc2cnc(Nc3ccc(N4CCN(CCOCCOCCOCCNc5cccc6c5C(=O)N(C5CCC(=O)NC5=O)C6=O)CC4)cn3)nc2n1C1CCCC1 (stereo not drawn) [Compound 18]
- Dmax at 1 µM (CDK6 [1]): > 90%
- inhibition at 0.1 µM (CDK4 [2]): 80%
- inhibition at 0.1 µM (CDK6 [3]): 29%
- Dmax at 1 µM (CDK4 [4]): > 90%
- IC50 (T47D cells): 8100 nM

SMILES: CN(C)C(=O)c1cc2cnc(Nc3ccc(N4CCN(CCCCCC(=O)Nc5cccc6c5C(=O)N(C5CCC(=O)NC5=O)C6=O)CC4)cn3)nc2n1C1CCCC1 (stereo not drawn) [Compound 3]
- Dmax at 1 µM (CDK6 [1]): 50 to 90%
- inhibition at 0.1 µM (CDK4 [2]): 97%
- IC50 (MCF-7 cells): 80 nM
- inhibition at 0.1 µM (CDK6 [3]): 86%
- Dmax at 1 µM (CDK4 [4]): > 90%
- IC50 (T47D cells): 13700 nM

SMILES: CN(C)C(=O)c1cc2cnc(Nc3ccc(N4CCN(CCCNC(=O)COc5cccc6c5C(=O)N(C5CCC(=O)NC5=O)C6=O)CC4)cn3)nc2n1C1CCCC1 (stereo not drawn) [Compound 46]
- Dmax at 1 µM (CDK6 [1]): 50 to 90%
- Dmax at 1 µM (CDK4 [4]): > 90%

SMILES: CN(C)C(=O)c1cc2cnc(Nc3ccc(N4CCN(CCCCCNC(=O)COc5cccc6c5C(=O)N(C5CCC(=O)NC5=O)C6=O)CC4)cn3)nc2n1C1CCCC1 (stereo not drawn) [Compound 47]
- Dmax at 1 µM (CDK6 [1]): 50 to 90%
- Dmax at 1 µM (CDK4 [4]): > 90%

SMILES: CN(C)C(=O)c1cc2cnc(Nc3ccc(N4CCN(CCOCCNC(=O)COc5cccc6c5C(=O)N(C5CCC(=O)NC5=O)C6=O)CC4)cn3)nc2n1C1CCCC1 (stereo not drawn) [Compound 48]
- Dmax at 1 µM (CDK6 [1]): 50 to 90%
- Dmax at 1 µM (CDK4 [4]): > 90%

SMILES: CN(C)C(=O)c1cc2cnc(Nc3ccc(N4CCN(CCOCCOCCNc5cccc6c5C(=O)N(C5CCC(=O)NC5=O)C6=O)CC4)cn3)nc2n1C1CCCC1 (stereo not drawn) [Compound 17]
- Dmax at 1 µM (CDK6 [1]): 50 to 90%
- inhibition at 0.1 µM (CDK4 [2]): 82%
- inhibition at 0.1 µM (CDK6 [3]): 25%
- Dmax at 1 µM (CDK4 [4]): 50 to 90%

SMILES: CN(C)C(=O)c1cc2cnc(Nc3ccc(N4CCNCC4)cn3)nc2n1C1CCCC1 [Ribociclib, reference compound]
- IC50 (T47D cells): 68700 nM

SMILES: CC(=O)c1c(C)c2cnc(Nc3ccc(N4CCN(C(=O)COCCOCCNc5cccc6c5C(=O)N(C5CCC(=O)NC5=O)C6=O)CC4)cn3)nc2n(C2CCCC2)c1=O (stereo not drawn) [Compound 11]
- inhibition at 0.1 µM (CDK4 [2]): 93%
- inhibition at 0.1 µM (CDK6 [3]): 79%

SMILES: CN(C)C(=O)c1cc2cnc(Nc3ccc(N4CCN(CCOCCOCCOc5cccc6c5C(=O)N(C5CCC(=O)NC5=O)C6=O)CC4)cn3)nc2n1C1CCCC1 (stereo not drawn) [Compound 19]
- Dmax at 1 µM (CDK6 [1]): 50 to 90%
- inhibition at 0.1 µM (CDK4 [2]): 80%
- inhibition at 0.1 µM (CDK6 [3]): 43%
- Dmax at 1 µM (CDK4 [4]): > 90%

SMILES: CN(C)C(=O)c1cc2cnc(Nc3ccc(N4CCN(CCOCCOCCOCCOc5cccc6c5C(=O)N(C5CCC(=O)NC5=O)C6=O)CC4)cn3)nc2n1C1CCCC1 (stereo not drawn) [Compound 20]
- Dmax at 1 µM (CDK6 [1]): 50 to 90%
- Dmax at 1 µM (CDK4 [4]): 50 to 90%

Further lines, results first:

- Dmax at 1 µM (CDK6 [1]): > 90%
- inhibition at 0.1 µM (CDK4 [2]): 96%
- inhibition at 0.1 µM (CDK6 [3]): 91%
- Dmax at 1 µM (CDK4 [4]): > 90%
SMILES: CC(=O)c1c(C)c2cnc(Nc3ccc(N4CCN(CCCCOc5cccc6c5C(=O)N(C5CCC(=O)NC5=O)C6=O)CC4)cn3)nc2n(C2CCCC2)c1=O (stereo not drawn) [Compound 24]

- Dmax at 1 µM (CDK6 [1]): 50 to 90%
- Dmax at 1 µM (CDK4 [4]): 50 to 90%
SMILES: CC(=O)c1c(C)c2cnc(Nc3ccc(N4CCN(CCOCCCNc5cccc6c5C(=O)N(C5CCC(=O)NC5=O)C6=O)CC4)cn3)nc2n(C2CCCC2)c1=O (stereo not drawn) [Compound 28]

- Dmax at 1 µM (CDK6 [1]): 50 to 90%
- inhibition at 0.1 µM (CDK4 [2]): 93%
- IC50 (MCF-7 cells): 160 nM
- inhibition at 0.1 µM (CDK6 [3]): 97%
- Dmax at 1 µM (CDK4 [4]): 50 to 90%
SMILES: CC(=O)c1c(C)c2cnc(Nc3ccc(N4CCN(CCOCCOCCOCCOc5cccc6c5C(=O)N(C5CCC(=O)NC5=O)C6=O)CC4)cn3)nc2n(C2CCCC2)c1=O (stereo not drawn) [Compound 21]

- inhibition at 0.1 µM (CDK4 [2]): 91%
- IC50 (MCF-7 cells): 220 nM
- inhibition at 0.1 µM (CDK6 [3]): 69%
SMILES: CC(=O)c1c(C)c2cnc(Nc3ccc(N4CCN(CCOCCOCCNc5cccc6c5C(=O)N(C5CCC(=O)NC5=O)C6=O)CC4)cn3)nc2n(C2CCCC2)c1=O (stereo not drawn) [Compound 15]

- Dmax at 1 µM (CDK6 [1]): 50 to 90%
- inhibition at 0.1 µM (CDK4 [2]): 82%
- IC50 (MCF-7 cells): 200 nM
- inhibition at 0.1 µM (CDK6 [3]): 84%
- Dmax at 1 µM (CDK4 [4]): 50 to 90%
SMILES: CC(=O)c1c(C)c2cnc(Nc3ccc(N4CCN(CCOCCOCCOc5cccc6c5C(=O)N(C5CCC(=O)NC5=O)C6=O)CC4)cn3)nc2n(C2CCCC2)c1=O (stereo not drawn) [Compound 8]

- Dmax at 1 µM (CDK6 [1]): 50 to 90%
- inhibition at 0.1 µM (CDK4 [2]): 97%
- IC50 (MCF-7 cells): 300 nM
- inhibition at 0.1 µM (CDK6 [3]): 68%
- Dmax at 1 µM (CDK4 [4]): 50 to 90%
SMILES: CC(=O)c1c(C)c2cnc(Nc3ccc(N4CCN(CCOCCOCCOCCNc5cccc6c5C(=O)N(C5CCC(=O)NC5=O)C6=O)CC4)cn3)nc2n(C2CCCC2)c1=O (stereo not drawn) [Compound 16]

- Dmax at 1 µM (CDK6 [1]): 50 to 90%
- Dmax at 1 µM (CDK4 [4]): 50 to 90%
SMILES: CC(=O)c1c(C)c2cnc(Nc3ccc(N4CCN(CCCOCCNc5cccc6c5C(=O)N(C5CCC(=O)NC5=O)C6=O)CC4)cn3)nc2n(C2CCCC2)c1=O (stereo not drawn) [Compound 27]

- Dmax at 1 µM (CDK6 [1]): 50 to 90%
- Dmax at 1 µM (CDK4 [4]): 50 to 90%
SMILES: CC(=O)c1c(C)c2cnc(Nc3ccc(N4CCN(CCCCCCOc5cccc6c5C(=O)N(C5CCC(=O)NC5=O)C6=O)CC4)cn3)nc2n(C2CCCC2)c1=O (stereo not drawn) [Compound 23]

- Dmax at 1 µM (CDK6 [1]): 50 to 90%
- Dmax at 1 µM (CDK4 [4]): 50 to 90%
SMILES: CC(=O)c1c(C)c2cnc(Nc3ccc(N4CCN(CCCCCCNc5cccc6c5C(=O)N(C5CCC(=O)NC5=O)C6=O)CC4)cn3)nc2n(C2CCCC2)c1=O (stereo not drawn) [Compound 26]

- Dmax at 1 µM (CDK6 [1]): > 90%
- Dmax at 1 µM (CDK4 [4]): > 90%
SMILES: CC(=O)c1c(C)c2cnc(Nc3ccc(N4CCN(CCCCCNC(=O)COc5cccc6c5C(=O)N(C5CCC(=O)NC5=O)C6=O)CC4)cn3)nc2n(C2CCCC2)c1=O (stereo not drawn) [Compound 38]

- inhibition at 0.1 µM (CDK4 [2]): 92%
- inhibition at 0.1 µM (CDK6 [3]): 85%
SMILES: CC(=O)c1c(C)c2cnc(Nc3ccc(N4CCN(S(=O)(=O)CCCCCOc5cccc6c5C(=O)N(C5CCC(=O)NC5=O)C6=O)CC4)cn3)nc2n(C2CCCC2)c1=O (stereo not drawn) [Compound 14]

- Dmax at 1 µM (CDK6 [1]): 50 to 90%
- Dmax at 1 µM (CDK4 [4]): 50 to 90%
SMILES: CC(=O)c1c(C)c2cnc(Nc3ccc(N4CCN(CCCCCCCCOc5cccc6c5C(=O)N(C5CCC(=O)NC5=O)C6=O)CC4)cn3)nc2n(C2CCCC2)c1=O (stereo not drawn) [Compound 25]
